From US20250270206A1, “COMPOSITIONS AND METHODS FOR INHIBITION OF RAS” (TheRas, Inc., priority 2022, published 2025)

What was measured:
[1] = biological target: T1, GppNHp-loaded KRAS4b (amino acids 1-169) G12C/C118S (Homo sapiens, UniProt P01116, C118S/G12C); assay: MALDI-TOF MS covalent Cys12 modification, GppNHp-loaded KRAS G12C; type: binding; details: 15 minutes reaction time, 1 μM protein, 1:2.5 protein to compound ratio
T1 construct: KRAS4b (amino acids 1-169) G12C/C118S protein; made in house
Procedure: (§1) MALDI-TOF MS analysis was performed using 1 μM protein target, and 1:2.5 protein to compound ratio was used.
(§2) Reaction: 1 μM of GppNHp, GTP, or GDP-loaded KRAS4b (amino acids 1-169) G12C/C118S protein (produced in-house by Protein Expression Laboratory, FNLCR/Leidos Biomed) in 20 mM 4-(2-hydroxyethyl)-1-piperazineethanesulfonic acid (HEPES) buffer containing 150 mM NaCl, 1 mM MgCl2, pH 7.3 was prepared freshly before assay. Ten-μL aliquots of protein were dispensed onto low volume 384-well plate, then 375 nL DMSO, and 25 nL of tested compounds from 5 mM DMSO stocks were added to appropriate wells using ECHO 555 acoustic liquid handler (Labcyte Inc.). For each reaction/assay, three blanks were prepared by mixing 10 μL of protein solution with 400 nL DMSO. The contents of the wells were carefully mixed by aspiration, and then each plate was sealed with an adhesive cover, centrifuged at 2000 g for 1 minute, and kept in the dark at room temperature until 5 min, 15 min, 30 min, 2 h, or 6 h collections.
(§3) Target pretreatment: Before each assay MALDI target (Bruker MPT 384 ground steel BC) was pre-treated by pipetting on each spot 0.75 μL of saturated sinapinic acid in acetonitrile (ACN).
(§4) Sample preparation: At collection time point, 2 μL of reaction mixtures were pipetted out into 20 μL MALDI matrix solution (saturated solution of sinapinic acid in 1:1 ACN:water solution containing 0.75% trifluoroacetic acid (TFA)) deposited on 384 well polypropylene plate. Resulting solution was mixed by aspiration, centrifuged at 2000 g for 1 minute, then 1 μL aliquots were dispensed on pre-treated MALDI target using Beckman Coulter Biomek FX^P 96/384-Span-8 Laboratory Automation Workstation. Finally, the MALDI target was dried under mild vacuum to produce spots with fine crystalline structure.
(§5) Measurements: MALDI-TOF measurements were performed on a Bruker Daltonics rapifleX Tissuetyper TOF-TOF mass spectrometer using linear mode and mass range from 18.6 to 21.6 kDa. Detector gain was set to 3.3× (483 V), sample rate to 5 GS/s, real time smoothing to medium (175 MHz), laser smart beam pattern was set to: “MS Thin Layer M5”, and the laser frequency was 10000 Hz. Spectra were automatically collected using custom AutoXecute method. Laser power was auto adjusted using fuzzy control. The peak selection range was set to be between 19000 and 21500 Da. Peak evaluation uses half width parameter set to be smaller than 40 Da for processed spectrograms (centroid peak detection: smoothed by SavitzkyGolay algorithm using 7 m/z width and 2 cycles; baseline was subtracted using median algorithm with flatness 1 and median level 0.01). Fuzzy control used Proteins/Oligonucleotides protocol with minimum half width 1/10 times above threshold. Up to 40000 satisfactory shots were collected in 10000 shot steps. Dynamic termination was implemented to finish data collection when peak signal/noise ratio reached a value of 50.
(§6) Spectra processing: Spectra were smoothed by SavitzkyGolay algorithm using 7 m/z width and three cycles. Centroid peak detection algorithm was used with signal to noise threshold set to 6, relative intensity threshold 4%, peak width 10 m/z and median baseline subtraction using flatness of 1 and median level of 0.01. Peak intensity and area under the peak were evaluated and recorded for all peaks between 19,300 Da and 21,550 Da.
(§7) Calculation of percent modification: Percent modification was calculated as a ratio of peak height for protein modified by compound to sum of peak height of remaining protein plus peak height for protein modified by compound. If multiple modifications were observed each was calculated as a ratio of peak height for given modification versus sum of peak heights for all observed protein species. Data reported in Table 5 are from the 15 minutes reaction time point.

[2] = biological target: T2, GTP-loaded KRAS4b (amino acids 1-169) G12C/C118S (Homo sapiens, UniProt P01116, C118S/G12C); assay: MALDI-TOF MS covalent Cys12 modification, GTP-loaded KRAS G12C; type: binding; details: 15 minutes reaction time, 1 μM protein, 1:2.5 protein to compound ratio
T2 construct: KRAS4b (amino acids 1-169) G12C/C118S protein; made in house
Procedure: as §1, §2, §3, §4, §5, §6, §7

[3] = biological target: T3, GDP-loaded KRAS4b (amino acids 1-169) G12C/C118S (Homo sapiens, UniProt P01116, C118S/G12C); assay: MALDI-TOF MS covalent Cys12 modification, GDP-loaded KRAS G12C; type: binding; details: 15 minutes reaction time, 1 μM protein, 1:2.5 protein to compound ratio
T3 construct: KRAS4b (amino acids 1-169) G12C/C118S protein; made in house
Procedure: as §1, §2, §3, §4, §5, §6, §7

[4] = biological target: T4, Avi-KRAS G12C (1-169) GppNHp/RAF1 RBD-3×FLAG (52-151) (Homo sapiens, UniProt P01116, G12C); assay: KRAS G12C-effector (RAF1 RBD) protein:protein interaction HTRF disruption assay; type: biochemical; details: PPI HTRF
T4 construct: Avi-KRAS G12C (1-169) GppNHp
Procedure: A protein:protein interaction (PPI) Homogeneous Time Resolved Fluorescence (HTRF) assay was used to determine the effectiveness of compounds of the present disclosure in disrupting KRAS G12C protein and effector (RAF1) binding.
The HTRF assay used the following reagents and proteins: 50 nM Avi-KRAS G12C (1-169) GppNHp/RAF1 RBD-3×FLAG (52-151); 75 nM Avi-RAF1 RBD-3×FLAG; Assay Buffer: 50 mM Tris pH 7.5, 100 mM NaCl, 5 mM MgCl2, 0.1% BSA, 0.01% Tween 20, 10% DMSO; Bead Buffer: 50 mM Tris pH 7.5, 0.01% Tween 20; Assay volume: 20 μL (384 well plate-low volume format); and Compound titration: 30-0.02 μM, 3× dilution series.
The HTRF assay employed the following protocol:
Compounds were dispensed in assay plate (384-well, Grenier Bione #784075) using Echo (model 555) with dose response settings: 200 nL final volume, titration from 100 μM as a 10-point dilution series. KRAS proteins were prepared in assay buffer, and dispensed on plates, 5 μL per well, then incubated for 1 h at room temperature, with 700 rpm shaking. RAF1 RBD were prepared in assay buffer, dispensed onto plates, 5 μL per well, and then incubated for 1 h at room temperature, with 700 rpm shaking. Reagent mix was then prepared and dispensed on plates, 10 μL per well, and then incubated for 1 h at room temperature, with 700 rpm shaking.
Plates were analyzed on an Envision plate reader using the following setting: Excitation 320 nm, Bandwidth 75 nm, Emission 615 nm, Bandwidth 85 nm; Gain 100%; Flashes 100; Lag 60 μs. Data was reported as percentage of activity, with DMSO as 100%. Data was plotted and analyzed using Prism 8.

pERK in NCI-H358 cells = assay: Cell-based pERK HTRF assay; details: Homo sapiens, 0.5 h, 30 min incubation
Procedure: pERK HTRF assays (Perkin Elmer) were used to determine the effectiveness of compounds of the present disclosure in disrupting KRAS G12C protein/effector signaling in cells.
On Day 1, cells (NCI-H358) were seeded into 96-well plates at 4×10^4 cells/well in complete growth media (RPMI, 10% FBS).
On Day 2, cells were treated with compounds at 0.25% DMSO. The source plate was created with compounds diluted in media at 5-fold the final assay concentration. The compounds were run in a 9-point concentration curve starting at 75 μM, with a 3-fold dilution between concentrations. 20 μL was transferred onto the cell plates (final volume in wells was 100 μL). Plates were harvested after 30 min incubation by aspirating media and adding kit-supplied 1× supplemented lysis buffer to all wells (75 μL per well). Plates were then placed on a plate shaker and incubated at 850 rpm for an additional 30 min.
Antibody mixture solution was prepared by diluting aliquoted d2 and Eu Cryptate antibodies 1:20 in kit supplied detection buffer, then mixed the diluted antibodies solutions (1:1 v:v). 4 μL of this solution was then added to a 384-well detection plate (Perkin Elmer; 6008230).
Samples were homogenized by pipetting up and down and then transferred (16 μL of cell lysates) from the 96-well cell culture plate to two wells of the HTRF 384-well detection plate containing the antibody solution. Plates were centrifuged (524 g for 1 min) and allowed to incubate between 4 and 24 h at room temperature. Maximum signal is reached after 4 h incubation time and remains stable over a period of 24 hours. Therefore, readings can be made between 4 and 24 h of incubation. Plates were centrifuged again (524 g for 1 min) and analyzed on the EnVision plate reader using the following settings: Excitation 320 nm, Bandwidth 75 nm; Emission 615 nm, Bandwidth 85 nm; Gain 100%; Flashes 100; Lag 60 μs.

| GppNHp-KRAS G12C percent of modification [1] | GTP-KRAS G12C percent of modification [2] | GDP-KRAS G12C percent of modification [3] | IC50 [4] | IC50 (pERK in NCI-H358 cells) | SMILES |
| --- | --- | --- | --- | --- | --- |
| A (percent of modification ≥70%) | A (percent of modification ≥70%) | A (percent of modification ≥70%) | ≤ 500 nM | ≤ 100 nM | C=CC(=O)N1C[C@@H](F)[C@@H](N(C)c2nc(OC[C@@]34CCCN3C[C@H](F)C4)nc3c(F)c(-c4ccc(F)c5sc(N)c(C#N)c45)ncc23)C1 [Compound 11] |
| A (percent of modification ≥70%) | A (percent of modification ≥70%) | A (percent of modification ≥70%) | ≤ 500 nM | ≤ 100 nM | C=CC(=O)N1C[C@H](F)[C@@H](N(C)c2nc(OC[C@@]34CCCN3C[C@H](F)C4)nc3c(F)c(-c4ccc(F)c5sc(N)c(C#N)c45)ncc23)C1 [Compound 12] |
| C (10%≤percent of modification <50%) | C (10%≤percent of modification <50%) | C (10%≤percent of modification <50%) | ≤ 500 nM | ≤ 100 nM | C=CC(=O)N1C[C@H](N(C)c2nc(OC[C@@]34CCCN3C[C@H](F)C4)nc3cc(-c4ccc(F)c5sc(N)c(C#N)c45)c(C(F)(F)F)nc23)C[C@H]1C [Compound 13] |
| C (10%≤percent of modification <50%) | C (10%≤percent of modification <50%) | A (percent of modification ≥70%) | ≤ 500 nM | 100 to 1000 nM | C=CC(=O)N1CC[C@@H](N(C)c2nc(N3CC(N4CC5(CC5)C4)C3)nc3c(F)c(-c4ccc(F)c5sc(N)c(C#N)c45)ncc23)C1 [Compound 14, 2-amino-4-[2-[3-(5-azaspiro[2.3]hexan-5-yl)azetidin-1-yl]-8-fluoro-4-[methyl-[(3R)-1-prop-2-enoylpyrrolidin-3-yl]amino]pyrido[4,3-d]pyrimidin-7-yl]-7-fluoro-benzothiophene-3-carbonitrile] |
| A (percent of modification ≥70%) | A (percent of modification ≥70%) | A (percent of modification ≥70%) | ≤ 500 nM | ≤ 100 nM | C=CC(=O)N1CC[C@@H](N(C)c2nc(OC[C@@]34CCCN3C[C@H](F)C4)nc3cc(-c4ccc(F)c5sc(N)c(C#N)c45)c(C(F)(F)F)nc23)[C@H]1C [Compound 15] |
| A (percent of modification ≥70%) | A (percent of modification ≥70%) | A (percent of modification ≥70%) | ≤ 500 nM | ≤ 100 nM | C=CC(=O)N1CC[C@@H](N(C)c2nc(OC[C@@]34CCCN3C[C@H](F)C4)nc3c(F)c(-c4ccc(F)c5sc(N)c(C#N)c45)ncc23)[C@H]1C [Compound 17, 4-(4-(((2R,3R)-1-acryloyl-2-methylpyrrolidin-3-yl)(methyl)amino)-8-fluoro-2-(((2R,7aS)-2-fluorotetrahydro-1H-pyrrolizin-7a(5H)-yl)methoxy)pyrido[4,3-d]pyrimidin-7-yl)-2-amino-7-fluorobenzo[b]thiophene-3-carbonitrile] |
| A (percent of modification ≥70%) | A (percent of modification ≥70%) | A (percent of modification ≥70%) | ≤ 500 nM | ≤ 100 nM | C=CC(=O)N1C[C@@H](F)[C@@H](N(CC)c2nc(OC[C@@]34CCCN3C[C@H](F)C4)nc3c(F)c(-c4ccc(F)c5sc(N)c(C#N)c45)ncc23)C1 [Compound 18] |
| A (percent of modification ≥70%) | A (percent of modification ≥70%) | A (percent of modification ≥70%) | ≤ 500 nM | ≤ 100 nM | C=CC(=O)N1CCC(N(CC)c2nc(OC[C@@]34CCCN3C[C@H](F)C4)nc3c(F)c(-c4ccc(F)c5sc(N)c(C#N)c45)ncc23)[C@H]1C (stereo partly shown) [Compound 19] |
